Measurements as given in US20080064735A1, “Method for controlling harmful organisms in crops of useful plants” (priority 2001, published 2008).

System: Plutella xylostella
Experiment: Plutella xylostella greenhouse spray test on cauliflower and Bt cauliflower (cry9C)
Format: in vivo
Protocol: Seven-week-old cauliflower plants (ordinary cauliflower, variety: Marner Allfrüh) and Bt cauliflower ([…], contains cry9C) were sprayed with the test insecticides with the aid of a track sprayer (200 l/ha). After drying, each of the plants was infected with 5 L2 larvae and 5 L3 larvae of Plutella xylostella. After 2, 4 and 7 days (DAA), feeding damage and mortality were scored. The test was carried out in a greenhouse at 23° C. and a relative atmospheric humidity of 60%.

[1] = 10 g active substance/ha, 2 DAA, Bt cauliflower
[2] = 10 g active substance/ha, 2 DAA, cauliflower
[3] = 10 g active substance/ha, 4 DAA, Bt cauliflower
[4] = 10 g active substance/ha, 4 DAA, cauliflower
[5] = 10 g active substance/ha, 7 DAA, Bt cauliflower
[6] = 10 g active substance/ha, 7 DAA, cauliflower
[7] = 30 g active substance/ha, 2 DAA, Bt cauliflower
[8] = 30 g active substance/ha, 2 DAA, cauliflower
[9] = 30 g active substance/ha, 4 DAA, Bt cauliflower
[10] = 30 g active substance/ha, 4 DAA, cauliflower
[11] = 30 g active substance/ha, 7 DAA, Bt cauliflower
[12] = 30 g active substance/ha, 7 DAA, cauliflower
[13] = 1 g active substance/ha, 2 DAA, Bt cauliflower
[14] = 1 g active substance/ha, 2 DAA, cauliflower
[15] = 1 g active substance/ha, 4 DAA, Bt cauliflower
[16] = 1 g active substance/ha, 4 DAA, cauliflower
[17] = 1 g active substance/ha, 7 DAA, Bt cauliflower
[18] = 1 g active substance/ha, 7 DAA, cauliflower
[19] = 3 g active substance/ha, 2 DAA, Bt cauliflower
[20] = 3 g active substance/ha, 2 DAA, cauliflower
[21] = 3 g active substance/ha, 4 DAA, Bt cauliflower
[22] = 3 g active substance/ha, 4 DAA, cauliflower
[23] = 3 g active substance/ha, 7 DAA, Bt cauliflower
[24] = 3 g active substance/ha, 7 DAA, cauliflower
[25] = 100 g active substance/ha, 2 DAA, Bt cauliflower
[26] = 100 g active substance/ha, 2 DAA, cauliflower
[27] = 100 g active substance/ha, 4 DAA, Bt cauliflower
[28] = 100 g active substance/ha, 4 DAA, cauliflower
[29] = 100 g active substance/ha, 7 DAA, Bt cauliflower
[30] = 100 g active substance/ha, 7 DAA, cauliflower

## C/C(=N\C#N)N(C)Cc1ccc(Cl)nc1 [Acetamiprid]
[1]
  % feeding damage: 0%
  % mortality: 100%
[2]
  % feeding damage: 10%
  % mortality: 0%
[3]
  % feeding damage: 0%
  % mortality: 100%
[4]
  % feeding damage: 12%
  % mortality: 0%
[5]
  % feeding damage: 0%
  % mortality: 100%
[6]
  % feeding damage: 15%
  % mortality: 0%
[7]
  % feeding damage: 0%
  % mortality: 100%
[8]
  % feeding damage: 10%
  % mortality: 0%
[9]
  % feeding damage: 0%
  % mortality: 100%
[10]
  % feeding damage: 12%
  % mortality: 0%
[11]
  % feeding damage: 0%
  % mortality: 100%
[12]
  % feeding damage: 15%
  % mortality: 0%

## N#Cc1nn(-c2c(Cl)cc(C(F)(F)F)cc2Cl)c(N)c1[S+]([O-])C(F)(F)F (stereo not drawn) [Fipronil]
[13]
  % feeding damage: 0%
  % mortality: 70%
[14]
  % feeding damage: 10%
  % mortality: 0%
[15]
  % feeding damage: 0%
  % mortality: 100%
[16]
  % feeding damage: 10%
  % mortality: 0%
[17]
  % feeding damage: 0%
  % mortality: 100%
[18]
  % feeding damage: 12%
  % mortality: 0%
[19]
  % feeding damage: 0%
  % mortality: 100%
[20]
  % feeding damage: 10%
  % mortality: 20%
[21]
  % feeding damage: 0%
  % mortality: 100%
[22]
  % feeding damage: 10%
  % mortality: 20%
[23]
  % feeding damage: 0%
  % mortality: 100%
[24]
  % feeding damage: 12%
  % mortality: 20%
[1]
  % feeding damage: 0%
  % mortality: 100%
[2]
  % feeding damage: 8%
  % mortality: 20%
[3]
  % feeding damage: 0%
  % mortality: 100%
[4]
  % feeding damage: 8%
  % mortality: 20%
[5]
  % feeding damage: 0%
  % mortality: 100%
[6]
  % feeding damage: 10%
  % mortality: 50%
[7]
  % feeding damage: 0%
  % mortality: 100%
[8]
  % feeding damage: 4%
  % mortality: 70%
[9]
  % feeding damage: 0%
  % mortality: 100%
[10]
  % feeding damage: 5%
  % mortality: 100%
[11]
  % feeding damage: 0%
  % mortality: 100%
[12]
  % feeding damage: 5%
  % mortality: 100%
[25]
  % feeding damage: 0%
  % mortality: 100%
[26]
  % feeding damage: 1%
  % mortality: 100%
[27]
  % feeding damage: 0%
  % mortality: 100%
[28]
  % feeding damage: 1%
  % mortality: 100%
[29]
  % feeding damage: 0%
  % mortality: 100%
[30]
  % feeding damage: 1%
  % mortality: 100%

## CS/C(C)=N\OC(=O)N(C)SN(C)C(=O)O/N=C(\C)SC [Thiodicarb]
[13]
  % feeding damage: 0%
  % mortality: 100%
[14]
  % feeding damage: 10%
  % mortality: 0%
[15]
  % feeding damage: 0%
  % mortality: 100%
[16]
  % feeding damage: 10%
  % mortality: 0%
[17]
  % feeding damage: 0%
  % mortality: 100%
[18]
  % feeding damage: 15%
  % mortality: 0%
[19]
  % feeding damage: 0%
  % mortality: 100%
[20]
  % feeding damage: 10%
  % mortality: 0%
[21]
  % feeding damage: 0%
  % mortality: 100%
[22]
  % feeding damage: 10%
  % mortality: 0%
[23]
  % feeding damage: 0%
  % mortality: 100%
[24]
  % feeding damage: 15%
  % mortality: 0%
[1]
  % feeding damage: 0%
  % mortality: 90%
[2]
  % feeding damage: 10%
  % mortality: 0%
[3]
  % feeding damage: 0%
  % mortality: 100%
[4]
  % feeding damage: 10%
  % mortality: 0%
[5]
  % feeding damage: 0%
  % mortality: 100%
[6]
  % feeding damage: 15%
  % mortality: 0%
[7]
  % feeding damage: 0%
  % mortality: 100%
[8]
  % feeding damage: 10%
  % mortality: 0%
[9]
  % feeding damage: 0%
  % mortality: 100%
[10]
  % feeding damage: 10%
  % mortality: 0%
[11]
  % feeding damage: 0%
  % mortality: 100%
[12]
  % feeding damage: 15%
  % mortality: 0%
[25]
  % feeding damage: 0%
  % mortality: 100%
[26]
  % feeding damage: 10%
  % mortality: 0%
[27]
  % feeding damage: 0%
  % mortality: 100%
[28]
  % feeding damage: 10%
  % mortality: 0%
[29]
  % feeding damage: 0%
  % mortality: 100%
[30]
  % feeding damage: 10%
  % mortality: 0%

## CCc1nn(C)c(C(=O)NCc2ccc(Oc3ccc(C)cc3)cc2)c1Cl [Tolfenpyrad]
[19]
  % feeding damage: 3%
  % mortality: 10%
[20]
  % feeding damage: 10%
  % mortality: 0%
[21]
  % feeding damage: 10%
  % mortality: 30%
[22]
  % feeding damage: 10%
  % mortality: 0%
[23]
  % feeding damage: 10%
  % mortality: 50%
[24]
  % feeding damage: 10%
  % mortality: 0%
[1]
  % feeding damage: 10%
  % mortality: 0%
[2]
  % feeding damage: 10%
  % mortality: 0%
[3]
  % feeding damage: 10%
  % mortality: 50%
[4]
  % feeding damage: 10%
  % mortality: 0%
[5]
  % feeding damage: 10%
  % mortality: 50%
[6]
  % feeding damage: 10%
  % mortality: 0%
[7]
  % feeding damage: 0%
  % mortality: 60%
[8]
  % feeding damage: 10%
  % mortality: 0%
[9]
  % feeding damage: 0%
  % mortality: 100%
[10]
  % feeding damage: 10%
  % mortality: 0%
[11]
  % feeding damage: 0%
  % mortality: 100%
[12]
  % feeding damage: 10%
  % mortality: 0%
[25]
  % feeding damage: 10%
  % mortality: 20%
[26]
  % feeding damage: 5%
  % mortality: 0%
[27]
  % feeding damage: 10%
  % mortality: 100%
[28]
  % feeding damage: 5%
  % mortality: 20%
[29]
  % feeding damage: 10%
  % mortality: 100%
[30]
  % feeding damage: 5%
  % mortality: 0%
